The values below come from patent US10668067B2, “Pyridine sulfonamides” (AMGEN INC., priority 2016, dated 2020).

Chain of human Nav1.7 (Q15858 whole entry): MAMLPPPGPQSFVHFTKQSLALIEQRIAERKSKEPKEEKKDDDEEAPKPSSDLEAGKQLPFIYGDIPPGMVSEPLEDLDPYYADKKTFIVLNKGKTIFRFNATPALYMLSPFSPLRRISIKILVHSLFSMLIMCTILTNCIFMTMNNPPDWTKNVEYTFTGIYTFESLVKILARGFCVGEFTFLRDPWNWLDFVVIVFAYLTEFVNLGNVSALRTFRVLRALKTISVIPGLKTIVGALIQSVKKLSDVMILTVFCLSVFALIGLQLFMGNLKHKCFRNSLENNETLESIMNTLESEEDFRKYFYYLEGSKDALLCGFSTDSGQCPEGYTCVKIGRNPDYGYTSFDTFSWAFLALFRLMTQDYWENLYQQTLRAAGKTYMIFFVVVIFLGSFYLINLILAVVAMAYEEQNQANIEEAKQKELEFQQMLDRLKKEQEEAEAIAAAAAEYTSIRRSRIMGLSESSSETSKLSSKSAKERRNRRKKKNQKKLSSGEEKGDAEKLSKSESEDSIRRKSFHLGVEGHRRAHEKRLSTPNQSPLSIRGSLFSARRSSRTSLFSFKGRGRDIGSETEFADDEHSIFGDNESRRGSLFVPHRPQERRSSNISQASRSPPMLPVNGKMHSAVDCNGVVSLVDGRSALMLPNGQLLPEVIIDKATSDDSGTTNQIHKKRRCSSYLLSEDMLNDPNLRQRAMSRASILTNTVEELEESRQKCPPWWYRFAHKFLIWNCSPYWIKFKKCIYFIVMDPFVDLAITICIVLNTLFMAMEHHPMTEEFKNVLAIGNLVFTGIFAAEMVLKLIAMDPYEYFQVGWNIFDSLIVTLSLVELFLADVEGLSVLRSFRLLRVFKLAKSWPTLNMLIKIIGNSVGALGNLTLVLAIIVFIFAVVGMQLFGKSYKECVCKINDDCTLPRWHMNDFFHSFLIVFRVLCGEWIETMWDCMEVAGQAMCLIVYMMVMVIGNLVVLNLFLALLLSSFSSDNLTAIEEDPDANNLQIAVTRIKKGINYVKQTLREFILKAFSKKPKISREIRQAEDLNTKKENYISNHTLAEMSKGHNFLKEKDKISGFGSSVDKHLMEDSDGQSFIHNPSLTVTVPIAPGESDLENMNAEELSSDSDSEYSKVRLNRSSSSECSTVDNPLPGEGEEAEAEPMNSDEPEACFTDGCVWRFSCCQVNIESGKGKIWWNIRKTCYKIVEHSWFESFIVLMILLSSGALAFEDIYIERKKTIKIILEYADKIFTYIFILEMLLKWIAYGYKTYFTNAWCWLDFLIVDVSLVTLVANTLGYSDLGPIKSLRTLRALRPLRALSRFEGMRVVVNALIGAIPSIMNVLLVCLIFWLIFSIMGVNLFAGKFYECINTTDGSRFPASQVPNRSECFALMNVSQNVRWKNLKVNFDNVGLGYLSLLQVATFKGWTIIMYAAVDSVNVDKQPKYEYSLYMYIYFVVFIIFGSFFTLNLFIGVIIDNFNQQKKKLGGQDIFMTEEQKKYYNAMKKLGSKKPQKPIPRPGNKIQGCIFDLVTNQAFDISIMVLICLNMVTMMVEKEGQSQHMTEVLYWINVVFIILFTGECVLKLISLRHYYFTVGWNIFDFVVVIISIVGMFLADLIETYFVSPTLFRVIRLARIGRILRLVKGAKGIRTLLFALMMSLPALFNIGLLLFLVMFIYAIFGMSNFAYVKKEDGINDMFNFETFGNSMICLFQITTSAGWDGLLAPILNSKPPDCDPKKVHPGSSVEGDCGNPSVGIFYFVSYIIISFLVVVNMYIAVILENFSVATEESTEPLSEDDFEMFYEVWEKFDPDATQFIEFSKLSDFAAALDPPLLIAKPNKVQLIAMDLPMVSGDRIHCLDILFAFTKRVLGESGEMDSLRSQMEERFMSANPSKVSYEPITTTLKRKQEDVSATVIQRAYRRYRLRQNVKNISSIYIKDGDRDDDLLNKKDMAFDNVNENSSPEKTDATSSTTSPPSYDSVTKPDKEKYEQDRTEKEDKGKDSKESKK

For the test, the target named is human Nav1.7 (Homo sapiens (Human), UniProt Q15858). Kind of test: Nav 1.7 In Vitro PX Assay (PatchXpress whole cell voltage clamp). To be noted: in-vitro Nav 1.7 PX data. It is filed as cell-based. As to the method:
HEK 293 cells stably transfected with human Nav1.7 were recorded in whole cell voltage clamp mode with the PatchXpress automated electrophysiology system (Molecular Devices, LLC, Sunnyvale, Calif.). Compound effects were measured on a partially inactivated state of the sodium channel. Cells were clamped to a holding potential yielding 20 to 50% inactivation. To elicit sodium current, channels were activated by pulsing to −10 mV for 20 msec. This voltage protocol was repeated at a rate of 0.1 Hz throughout the experiment. A single concentration of test compound was applied to cells for a duration of 3 minutes. Peak sodium current was measured at the end of the compound addition period to determine percent inhibition. Three to five cells were tested per concentration, and IC50 curves were fitted to percent inhibition as a function of concentration.
`CNC(=O)N(c1ccc(S(=O)(=O)Nc2ccon2)cn1)c1cc(Cl)c(-c2ccc(Cl)c(F)c2)cc1OC` [Example 1-63, 6-((2,4′-dichloro-3′-fluoro-5-methoxy-4-biphenylyl)(methylcarbamoyl)amino)-N-3-isoxazolyl-3-pyridinesulfonamide] came in with an IC50 of 28 nM. Next, `CNC(=O)N(c1ccc(S(=O)(=O)Nc2ccon2)cn1)c1cc(Cl)c(-c2ccc(F)c(OCC(F)(F)F)c2)cc1OC` [Example 1-57, 6-((2-chloro-4′-fluoro-5-methoxy-3′-(2,2,2-trifluoroethoxy)-4-biphenylyl)(methylcarbamoyl)amino)-N-3-isoxazolyl-3-pyridinesulfonamide]: 24 nM; `CCOc1cc(-c2cc(OC)c(N(C(=O)NC)c3ccc(S(=O)(=O)Nc4ccon4)cn3)cc2Cl)ccc1F` [Example 1-67, 6-((2-chloro-3′-ethoxy-4′-fluoro-5-methoxy-4-biphenylyl)(methylcarbamoyl)amino)-N-3-isoxazolyl-3-pyridinesulfonamide]: 34 nM.

`CNC(=O)N(c1ccc(S(=O)(=O)Nc2cccnn2)cn1)c1cc(Cl)c(-c2ccc(F)c(OCC(F)(F)F)c2)cc1OC` [Example 2-4, 6-((2-chloro-4′-fluoro-5-methoxy-3′-(2,2,2-trifluoroethoxy)-4-biphenylyl)(methylcarbamoyl)amino)-N-3-pyridazinyl-3-pyridinesulfonamide] yielded a half-inhibitory concentration (IC50) of 54 nM.

`CNC(=O)N(c1ccc(S(=O)(=O)Nc2ncccn2)cn1)c1cc(Cl)c(-c2ccc(F)c(C(F)(F)F)c2)cc1OC` [Example 3-7, 6-((2-chloro-4′-fluoro-5-methoxy-3′-(trifluoromethyl)-4-biphenylyl)(methylcarbamoyl)amino)-N-2-pyrimidinyl-3-pyridinesulfonamide] returned an IC50 of 28 nM. `COc1cc(-c2cccc(OCC(F)(F)F)c2)c(Cl)cc1N(C(N)=O)c1ccc(S(=O)(=O)Nc2ccon2)cn1` [Example 5-5, 6-(carbamoyl(2-chloro-5-methoxy-3′-(2,2,2-trifluoroethoxy)-4-biphenylyl)amino)-N-3-isoxazolyl-3-pyridinesulfonamide] yielded an IC50 of 16 nM. This IC50 is about 1.8-fold lower than that of the molecule before. Next, `CNC(=O)N(c1ccc(S(=O)(=O)Nc2ccon2)cc1)c1cc(F)c(-c2ccc(F)c(OC(F)(F)F)c2)cc1OC` [Example 10, 4-(1-(2,4′-difluoro-5-methoxy-3′-(trifluoromethoxy)-[1,1′-biphenyl]-4-yl)-3-methylureido)-N-(isoxazol-3-yl)benzenesulfonamide]: 210 nM.

Molecule `CNC(=O)N(c1ccc(S(=O)(=O)Nc2cccnn2)cn1)c1cc(Cl)c(-c2cc(OC)nc(C(F)(F)F)c2)cc1OC` [Example 2-6, 6-((5-chloro-2-methoxy-4-(2-methoxy-6-(trifluoromethyl)-4-pyridinyl)phenyl)(methylcarbamoyl)amino)-N-3-pyridazinyl-3-pyridinesulfonamide] came in with an IC50 of 26 nM. Next, `CNC(=O)N(c1ccc(S(=O)(=O)Nc2ccon2)cn1)c1cc(Cl)c(-c2ccc(C)c(Cl)c2)cc1OC` [Example 1-61, 6-((2,3′-dichloro-5-methoxy-4′-methyl-4-biphenylyl)(methylcarbamoyl)amino)-N-3-isoxazolyl-3-pyridinesulfonamide]: 20 nM; `CNC(=O)N(c1ccc(S(=O)(=O)Nc2ccon2)cn1)c1cc(Cl)c(-c2ccc(F)cc2)cc1OC` [Example 1-44, 6-((2-chloro-4′-fluoro-5-methoxy-4-biphenylyl)(methylcarbamoyl)amino)-N-3-isoxazolyl-3-pyridinesulfonamide]: 125 nM; `CNC(=O)N(c1ccc(S(=O)(=O)Nc2ncccn2)cn1)c1cc(F)c(-c2ccc(F)c(C(F)F)c2)cc1OC` [Example 2-2, 6-((3′-(difluoromethyl)-2,4′-difluoro-5-methoxy-4-biphenylyl)(methylcarbamoyl)amino)-N-2-pyrimidinyl-3-pyridinesulfonamide]: 7 nM. Next, `CNC(=O)N(c1ccc(S(=O)(=O)Nc2ccon2)cn1)c1cc(-c2cccc(F)c2)c(Cl)cc1OC` [Example 4-7, 6-((6-chloro-3′-fluoro-4-methoxy-3-biphenylyl)(methylcarbamoyl)amino)-N-3-isoxazolyl-3-pyridinesulfonamide]: 891 nM. In turn, `CNC(=O)N(c1ccc(S(=O)(=O)Nc2ccon2)cn1)c1cc(F)c(-c2cc(Cl)cc(OC)c2)cc1OC` [Example 1-6, 6-((3′-chloro-2-fluoro-5,5′-dimethoxy-4-biphenylyl)(methylcarbamoyl)amino)-N-3-isoxazolyl-3-pyridinesulfonamide] showed an IC50 of 51 nM. With `CNC(=O)N(c1ccc(S(=O)(=O)Nc2ccon2)cn1)c1cc(-c2cc(Cl)cc(OC)c2)c(Cl)cc1OC` [Example 4-8, 6-((3′,6-dichloro-4,5′-dimethoxy-3-biphenylyl)(methylcarbamoyl)amino)-N-3-isoxazolyl-3-pyridinesulfonamide] the figure was 81 nM. Next, `CCCCCCCCCCCCCCc1cc(OC)c(N(C(=O)NC)c2ccc(S(=O)(=O)Nc3ncccn3)cn2)cc1F` [Example 2-11, 6-(1-(5-Fluoro-2-methoxy-4-tetradecylphenyl)-3-methylureido)-N-(pyrimidin-2-yl)pyridine-3-sulfonamide]: 14 nM.

`CNC(=O)N(c1ccc(S(=O)(=O)Nc2ccon2)cn1)c1cc(Cl)c(-c2ccc(Cl)cc2)cc1OC` [Example 1-70, 6-((2,4′-dichloro-5-methoxy-4-biphenylyl)(methylcarbamoyl)amino)-N-3-isoxazolyl-3-pyridinesulfonamide] gave an IC50 of 52 nM.

Take `CNC(=O)N(c1ccc(S(=O)(=O)Nc2ccon2)cn1)c1cc(Cl)c(-c2ccc(Cl)c(C)c2)cc1OC` [Example 1-29, 6-((2,4′-dichloro-5-methoxy-3′-methyl-4-biphenylyl)(methylcarbamoyl)amino)-N-3-isoxazolyl-3-pyridinesulfonamide]: 20 nM corresponded to half-maximal inhibition (IC50). Next, `CNC(=O)N(c1ccc(S(=O)(=O)Nc2ncccn2)cn1)c1cc(Cl)c(-c2ccc(Cl)c(C#N)c2)cc1OC` [Example 1-75, 6-((2,4′-dichloro-3′-cyano-5-methoxy-4-biphenylyl)(methylcarbamoyl)amino)-N-2-pyrimidinyl-3-pyridinesulfonamide]: 106 nM; `CNC(=O)N(c1ccc(S(=O)(=O)Nc2ccon2)cn1)c1cc(Cl)c(-c2cc(OC)cc(OC)c2)cc1OC` [Example 1-64, 6-((2-chloro-3′,5,5′-trimethoxy-4-biphenylyl)(methylcarbamoyl)amino)-N-3-isoxazolyl-3-pyridinesulfonamide]: 78 nM. Next, `CNC(=O)N(c1ccc(S(=O)(=O)Nc2ccon2)cn1)c1cc(F)c(-c2cc(Cl)c(F)c(OC)c2)cc1OC` [Example 1-25, 6-((3′-chloro-2,4′-difluoro-5,5′-dimethoxy-4-biphenylyl)(methylcarbamoyl)amino)-N-3-isoxazolyl-3-pyridinesulfonamide]: 16 nM; `CNC(=O)N(c1ccc(S(=O)(=O)Nc2ncco2)cn1)c1cc(F)c(-c2ccc(F)c(OC(F)(F)F)c2)cc1OC` [Example 3-14, 6-((2,4′-difluoro-5-methoxy-3′-(trifluoromethoxy)-4-biphenylyl)(methylcarbamoyl)amino)-N-1,3-oxazol-2-yl-3-pyridinesulfonamide]: 17 nM; `CNC(=O)N(c1ccc(S(=O)(=O)Nc2ccon2)cn1)c1ccc(-c2cc(F)cc(Cl)c2)cc1OC` [Example 1-74, 6-((3′-chloro-5′-fluoro-3-methoxy-4-biphenylyl)(methylcarbamoyl)amino)-N-3-isoxazolyl-3-pyridinesulfonamide]: 84 nM. The molecule `CNC(=O)N(c1ccc(S(=O)(=O)Nc2ccon2)cn1)c1cc(F)c(-c2cccc(C3CC3)c2)cc1OC` [Example 1-13, 6-((3′-cyclopropyl-2-fluoro-5-methoxy-4-biphenylyl)(methylcarbamoyl)amino)-N-3-isoxazolyl-3-pyridinesulfonamide] yielded a concentration for half-maximal inhibition (IC50) of 46 nM. Next, `CNC(=O)N(c1ccc(S(=O)(=O)Nc2ncco2)cn1)c1cc(Cl)c(-c2ccc(F)c(C(F)(F)F)c2)cc1OC` [Example 3-10, 6-((2-chloro-4′-fluoro-5-methoxy-3′-(trifluoromethyl)-4-biphenylyl)(methylcarbamoyl)amino)-N-1,3-oxazol-2-yl-3-pyridinesulfonamide]: 20 nM; `CNC(=O)N(c1ccc(S(=O)(=O)Nc2ccon2)cn1)c1ccc(-c2cc(Cl)cc(OC)c2)cc1OC` [Example 1-72, 6-((3′-chloro-3,5′-dimethoxy-4-biphenylyl)(methylcarbamoyl)amino)-N-3-isoxazolyl-3-pyridinesulfonamide]: 101 nM; `CNC(=O)N(c1ccc(S(=O)(=O)Nc2ccon2)cn1)c1cc(Cl)c(-c2ccc(C(F)(F)F)c(OC)c2)cc1OC` [Example 1-46, 6-((2-chloro-3′,5-dimethoxy-4′-(trifluoromethyl)-4-biphenylyl)(methylcarbamoyl)amino)-N-3-isoxazolyl-3-pyridinesulfonamide]: 46 nM. With `CNC(=O)N(c1ccc(S(=O)(=O)Nc2ccon2)cn1)c1cc(Cl)c(-c2cc(F)c(F)c(OC)c2)cc1OC` [Example 1-68, 6-((2-chloro-3′,4′-difluoro-5,5′-dimethoxy-4-biphenylyl)(methylcarbamoyl)amino)-N-3-isoxazolyl-3-pyridinesulfonamide] the figure was 23 nM. With `CNC(=O)N(c1ccc(S(=O)(=O)Nc2ccon2)cn1)c1cc(Cl)c(-c2ccc(C(F)(F)F)cc2)cc1OC` [Example 1-45, 6-((2-chloro-5-methoxy-4′-(trifluoromethyl)-4-biphenylyl)(methylcarbamoyl)amino)-N-3-isoxazolyl-3-pyridinesulfonamide] the figure was 65 nM.

By IC50 is commonly meant the concentration needed to halve the response being measured. Low values mean inhibition by little substance, high ones a need for much substance.
